From patent publication US9586905B2, “Benzoazepine derivative and medical use thereof” (SANWA KAGAKU KENKYUSHO CO., LTD., priority 2012, dated 2017)

Target: T1, human V2 receptor (Homo sapiens, UniProt P30518)
T1 construct: A DNA fragment containing a human V2 receptor code region; expressed in transfected cells
Test: cAMP production test in V2 receptor expression cell
Type: cell-based
Conditions: for EC50: human V2 receptor expression cell, 30 minutes at room temperature, HTRF cAMP kit; for Emax: maximum reaction by 8-AVP assumed to be 100%
Procedure: Pharmacological Test (1) Preparation of Human V2 Receptor Expression Cell
A DNA fragment containing a human V2 receptor code region was inserted into an expression vector of a vertebrate cell. The expression vector was genetically introduced into an animal cell to have the human V2 receptor express in the surface of the cell. Since the expression vector could express a neo gene which functions as a G418 resistance marker, it was cultured in a G418-containing medium, thereby selectively obtaining a human V2 receptor stable expression cell.
(2) cAMP Production Test in V2 Receptor Expression Cell
The human V2 receptor expression cell, which was prepared in the above described method, was recovered and resuspended into an incubation buffer (F-12 medium, 20 mM HEPES), and 5 μl of the cell was then divided into a 384-well plate with a density of 15,000 cells/well. 5 μl of a compound solution or an 8-AVP ((Arg^8)-vasopressin) solution, which was diluted with an assay buffer (F-12 medium, 20 mM HEPES, 1 mM IBMX), (total 10 μl/well) was added to each well (final concentration: 15,000 cells/well, 500 μM IBMX, 1% dimethyl sulfoxide). After incubation at room temperature for 30 minutes, a cAMP production amount was measured using a commercially available HTRF cAMP kit (Cisbio Inc.) according to the described protocol. Excel Fit was used in order to find EC50 and Emax values of the test compound.

T1 sequence (P30518 whole entry, the tested form may be a part): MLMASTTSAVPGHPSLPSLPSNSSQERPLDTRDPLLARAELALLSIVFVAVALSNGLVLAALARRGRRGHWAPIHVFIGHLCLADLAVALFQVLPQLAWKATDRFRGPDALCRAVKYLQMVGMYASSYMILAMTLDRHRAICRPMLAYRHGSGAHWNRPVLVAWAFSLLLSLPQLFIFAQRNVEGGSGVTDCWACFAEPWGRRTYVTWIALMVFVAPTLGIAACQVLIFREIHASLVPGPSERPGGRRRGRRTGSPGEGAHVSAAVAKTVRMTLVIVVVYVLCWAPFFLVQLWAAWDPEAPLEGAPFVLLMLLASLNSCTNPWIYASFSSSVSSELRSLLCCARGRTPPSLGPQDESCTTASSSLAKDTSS

Row | Structure (SMILES) | EC50 [nM] | Emax [%]
1 | Cc1nnc(NC(=O)C2(C)CCN(C(=O)c3ccc(N4CCCC4)cc3Cl)c3ccccc3C2)o1 (racemic) [Example 79] | 0.9 | 100
2 | COC(=O)C1Cc2ccccc2N(C(=O)c2ccc(N3CCCC3)cc2Cl)CC1C (racemic) [Example 42] | 0.8 | 103
3 | CC1CN(C(=O)c2ccc(N3CCCC3)cc2Cl)c2ccccc2CC1(F)C(=O)NCC(N)=O (racemic) [Example 101] | 1.1 | 102
4 | CCN(CC)C(=O)CNC(=O)C1(C)CCN(C(=O)c2ccc(N3CCCC3)cc2Cl)c2ccccc2C1 (racemic) [Example 81] | 6.6 | 100
5 | Cc1ccn(-c2ccc(C(=O)N3CC(C)C(C)(C(=O)NCC(N)=O)Cc4ccccc43)c(C)c2)n1 (racemic) [Example 97] | 0.56 | 102
6 | C[C@@H]1CN(C(=O)c2ccc(N3CCCC3)cc2Cl)c2ccccc2CC1C(=O)O (mixture of isomers) [Example 56, (3S)-1-[2-chloro-4-(pyrrolidine-1-yl)benzoyl]-3-methyl-2,3,4,5-tetrahydro-1H-benzo[b]azepine-4-carboxylic acid] | 0.1 | 102
7 | COC(=O)C1(C)CCN(C(=O)c2ccc(-c3ncco3)cc2Cl)c2ccccc2C1 (racemic) [Example 33] | 20 | 96
8 | Cc1cc(N2CCCC2)ccc1C(=O)N1CCC(C)(C(=O)O)Cc2ccccc21 (single isomer, unassigned) [Example 45, 4-methyl-1-[2-methyl-4-(pyrrolidine-1-yl)benzoyl]-2,3,4,5-tetrahydro-1H-benzo[b]azepine-4-carboxylic acid] | 0.34 | 102
9 | CC(CO)NC(=O)C1Cc2ccccc2N(C(=O)c2ccc(N3CCCC3)cc2Cl)CC1C (racemic) [Example 98] | 1 | 101
10 | CC1CN(C(=O)c2ccc(N3CCCC3)cc2Cl)c2ccccc2CC1C(=O)NCC(N)=O (racemic) [Example 99] | 0.4 | 102
11 | CCCOc1ccc(C(=O)N2CCC(C)(C(=O)NC(C)CO)Cc3ccccc32)c(Cl)c1 (racemic) [Example 83] | 3.4 | 100
12 | COC(=O)C1(C)CCN(C(=O)c2ccc(-n3cccn3)cc2Cl)c2ccccc2C1 (racemic) [Example 34] | 9.8 | 98
13 | CC(CO)NC(=O)C1(F)Cc2ccccc2N(C(=O)c2ccc(N3CCCC3)cc2Cl)CC1C (racemic) [Example 100] | 3 | 100
14 | CC1(C(=O)NCc2nnco2)CCN(C(=O)c2ccc(N3CCCC3)cc2Cl)c2ccccc2C1 (racemic) [Example 82] | 1.1 | 101
15 | CC(C)C(NC(=O)C1(C)CCN(C(=O)c2ccc(OCCCF)cc2Cl)c2ccccc2C1)C(N)=O (racemic) [Example 73] | 1.9 | 100
16 | Cc1ccn(-c2ccc(C(=O)N3C[C@@H](C)C(C)(C(=O)O)Cc4ccccc43)c(C)c2)n1 (mixture of isomers) [Example 55, (3S)-3,4-dimethyl-1-[2-methyl-4-(3-methyl-1H-pyrazol-1-yl)benzoyl]-2,3,4,5-tetrahydro-1H-benzo[b]azepine-4-carboxylic acid] | 0.2 | 101
17 | C[C@@H]1CN(C(=O)c2ccc(N3CCCC3)cc2Cl)c2ccccc2CC1(F)C(=O)O (mixture of isomers) [Example 57, (3R)-1-[2-chloro-4-(pyrrolidine-1-yl)benzoyl]-4-fluoro-3-methyl-2,3,4,5-tetrahydro-1H-benzo[b]azepine-4-carboxylic acid] | 0.2 | 102
18 | CC(NC(=O)C1(C)CCN(C(=O)c2ccc(OCC(F)(F)F)cc2Cl)c2ccccc2C1)C(N)=O (single isomer, unassigned) [Example 76] | 0.99 | 102
19 | COC(=O)C1(C)CCN(C(=O)c2ccc(N3CCCC3)cc2Cl)c2ccccc2C1 (racemic) [Example 31] | 7.9 | 102

Row | Structure (SMILES) | EC50 [nM] | Emax [%]
20 | CC1(C(=O)NCC(N)=O)CCN(C(=O)c2ccc(-n3cccn3)cc2Cl)c2ccccc2C1 (racemic) [Example 88] | 8.1 | 93
21 | Cc1cc(N2CCCC2)ccc1C(=O)N1CCC(C)(C(=O)NC(C)C(N)=O)Cc2ccccc21 (single isomer, unassigned) [Example 68] | 0.74 | 102
22 | Cc1cc(N2CCC(C)C2)ccc1C(=O)N1CCC(F)(C(N)=O)Cc2ccccc21 (racemic) [Example 94] | 0.41 | 101
23 | CC(CO)NC(=O)C1(C)CCN(C(=O)c2ccc(-c3ncco3)cc2Cl)c2ccccc2C1 (racemic) [Example 85] | 15 | 94
24 | Cc1cc(N2CCCC2)ccc1C(=O)N1CCC(F)(C(=O)O)Cc2ccccc21 (single isomer, unassigned) [Example 54, 4-fluoro-1-[2-methyl-4-(pyrrolidine-1-yl)benzoyl]-2,3,4,5-tetrahydro-1H-benzo[b]azepine-4-carboxylic acid] | 0.28 | 102
25 | CC1(C(=O)O)CCN(C(=O)c2ccc(N3CCCC3)cc2Cl)c2ccccc2C1 (racemic) [Example 49, 1-[2-chloro-4-(pyrrolidine-1-yl)benzoyl)-4-methyl-2,3,4,5-tetrahydro-1H-benzo[b]azepine-4-carboxylic acid] | 0.5 | 102
26 | Cc1cc(N2CCC(C)C2)ccc1C(=O)N1CCC(F)(C(=O)NCC(N)=O)Cc2ccccc21 (racemic) [Example 95] | 0.99 | 102
27 | COC(=O)C1(C)CCN(C(=O)c2ccc(-n3ccc(C)n3)cc2C(F)(F)F)c2ccccc2C1 (single isomer, unassigned) [Example 35] | 1.4 | 102
28 | CCNC(=O)CNC(=O)C1(C)CCN(C(=O)c2ccc(N3CCCC3)cc2Cl)c2ccccc2C1 (racemic) [Example 80] | 2.8 | 101
29 | Cc1cc(N2CCC(C)C2)ccc1C(=O)N1CCC(C)(C(=O)NCC(N)=O)Cc2ccccc21 (racemic) [Example 69] | 0.53 | 101
30 | CC1(C(=O)NCC(N)=O)CCN(C(=O)c2ccc(-c3ncco3)cc2Cl)c2ccccc2C1 (racemic) [Example 86] | 17 | 88
31 | CC1(C(=O)O)CCN(C(=O)c2ccc(-c3ncco3)cc2Cl)c2ccccc2C1 (racemic) [Example 51, 1-[2-chloro-4-(oxazol-2-yl)benzoyl]-4-methyl-2,3,4,5-tetrahydro-1H-benzo[b]azepine-4-carboxylic acid] | 6 | 73
32 | COC(=O)C1(F)Cc2ccccc2N(C(=O)c2ccc(N3CCCC3)cc2Cl)CC1C (racemic) [Example 43] | 0.1 | 102
33 | CCCOc1ccc(C(=O)N2CCC(C)(C(=O)O)Cc3ccccc32)c(Cl)c1 (racemic) [Example 50, 1-(2-chloro-4-propoxybenzoyl)-4-methyl-2,3,4,5-tetrahydro-1H-benzo[b]azepine-4-carboxylic acid] | 0.9 | 100
34 | CCCOc1ccc(C(=O)N2CCC(C)(C(=O)NCC(N)=O)Cc3ccccc32)c(Cl)c1 (racemic) [Example 84] | 2.5 | 100
35 | CCCOc1ccc(C(=O)N2CCC(C)(C(=O)OC)Cc3ccccc32)c(Cl)c1 (racemic) [Example 32] | 9.1 | 104
36 | COC(=O)C1(F)CCN(C(=O)c2ccc(N3CCCC3)cc2C)c2ccccc2C1 (single isomer, unassigned) [Example 38] | 0.06 | 101
37 | CC(CO)NC(=O)C1(C)CCN(C(=O)c2ccc(-n3cccn3)cc2Cl)c2ccccc2C1 (racemic) [Example 87] | 9.5 | 97
38 | CC1(C(=O)O)CCN(C(=O)c2ccc(-n3cccn3)cc2Cl)c2ccccc2C1 (racemic) [Example 52, 1-[2-chloro-4-(1H-pyrazol-1-yl)benzoyl]-4-methyl-2,3,4,5-tetrahydro-1H-benzo[b]azepine-4-carboxylic acid] | 3.9 | 85
